Experimental data as given in patent US20230116760A1, “STRUCTURALLY-STABILIZED ONCOLYTIC PEPTIDES AND USES THEREOF” (Dana-Farber Cancer Institute, Inc., priority 2019, published 2023).
Bridge positions count the residues as written; N and C are the ends. Square brackets hold non-standard residues; d marks the D form. Ends that are not written are not given here. Peptide text beside a SMILES is read from it. S5 = C=CCCC[C@](C)(N)C(=O)O; Nle = CCCC[C@H](N)C(=O)O

How the values were obtained:
S. aureus = experiment: killing of S. aureus; type: cell-based; settings: vs Mag(i+4)15
B. cereus = experiment: killing of B. cereus; type: cell-based; settings: vs Mag(i+4)15
OCI-AML3 cells = experiment: LDH release assay of OCI-AML3 cells; type: cell-based, human; settings: 90 minutes; for cancer cell lysis by LDH release, compared with parent Mag(i+4)15: 10 and 25 μg/mL, FIG. 6, FIG. 7; for susceptibility of OCI-AML3 cells to iStOPs (LDH release): FIG. 19
Experimental: (§1) LDH release assay: To assess the release of lactate dehydrogenase (LDH) upon treatment with a structurally-stabilized peptide described herein, an LDH release assay can be used. Cultured cells, including, e.g., cancer cells and HUVEC cells, are plated in 96-well format (2×10^4 cells per well; including overnight incubation for adherent cells) and then treated with serial dilutions of structurally-stabilized peptides in a final volume in a final volume of 100 μL and incubated at 37° C. for the indicated time period (e.g., 90 minutes). The plates are spun down at 1500 rpm for 5 minutes at 4° C., and 80 μL of cell culture media is transferred to a clear plate (Corning), incubated with 80 μL of LDH reagent (Roche) for 15 minutes while shaking, and absorbance is measured at 490 nm on a microplate reader (SpectraMax M5 Microplate Reader, Molecular Devices). LDH release assays, as tailored to specific cancer cell types (OCI-AML3 cells and primary human pediatric B-ALL cells), are exemplified below.
(§2) LDH release assay of OCI-AML3 cells: OCI-AML3 cells are seeded in 96-well plates (2×10^4 cells per well) in RPMI medium containing 5% FBS and treated with structurally-stabilized peptides for 90 minutes. LDH release is quantified by incubating centrifuged (e.g., at 1500 rpm) cell culture medium 1:1 with LDH reagent (Roche), followed by absorbance measurement 490 nm on a microplate reader (Spectramax M5). Percent LDH release was normalized to 1% Triton.
(§3) LDH release assay: Cultured cells, including cancer cells and HUVEC cells, were plated in 96-well format (2×10^4 cells per well; including overnight incubation for adherent cells) and then treated with serial dilutions of Mag(i+4) peptides in a final volume in a final volume of […] and incubated at 37° C. for the indicated time period. The plates were spun down at 1500 rpm for 5 min at 4° C., and 80 μL of cell culture media was transferred to a clear plate (Corning), incubated with 80 μL of LDH reagent (Roche) for 15 min while shaking, and absorbance measured at 490 nm on a microplate reader (SpectraMax M5 Microplate Reader, Molecular Devices). LDH release assays, as tailored to specific cancer cell types, are exemplified below.
as §2, with “were” for “are”, “with” for “with structurally-stabilized”, “peptides having the indicated amino acid sequences” for “peptides”, “was” for “is”, “centrifuged” for “centrifuged (e.g., at 1500 rpm)”, “Triton. Data was pooled from 2 technical replicates.” for “Triton.”

U937 cells = experiment: LDH release assay of U937 cells; type: cell-based; settings: 10 and 25 μg/mL, 90 minutes, FIG. 6, FIG. 7
Experimental: as §1, §3

[1] = mice; Mourtada et al., Nature Biotech, 2019; cited from earlier work
[2] = tested on: leukemia cells (e.g. U937, OCI-AML3 and MV4;11 cells); type: cell-based; settings: 24 h
Experimental: as §1
LDH release assay: Cultured cells, including cancer cells and HUVEC cells, were plated in 96-well format (2×10^4 cells per well; including overnight incubation for adherent cells) and then treated with serial dilutions of Mag(i+4) peptides in a final volume in a final volume of […] and incubated at 37° C. for the indicated time period. […]

red blood cells (RBCs) = type: cell-based, human
Experimental: RBC hemolysis assay: To assess the hemolytic activity of a structurally-stabilized peptide described herein, a red blood cell (RBV) hemolysis assay can be used. Human blood samples are centrifuged to isolate RBCs, which are then washed and suspended in phosphate-buffered saline to yield a 1% (v/v) suspension. The suspension is added to serial dilutions of peptide stocks in water in clear round-bottom polypropylene 96-well plates and the plates incubated for 1 hour at 37° C. The plates are then centrifuged and the supernatant isolated to determine the amount of hemoglobin released using a spectrophotometer (570 nm). Percent hemolysis is calculated as: ([Treated Absorbance−Untreated Control Absorbance]×100)/(1% Triton X-100 Treated Absorbance−Untreated Control Absorbance).
Stapled oncolytic peptide synthesis: Fmoc-based solid-phase peptide synthesis was used to synthesize stapled antimicrobial peptides in accordance with previously reported methods for generating all-hydrocarbon stapled peptides. To achieve the various staple lengths, α-methyl, α-alkenyl amino acids were installed at i, i+4 positions using two S-pentenyl alanine residues (S5). For the stapling reaction, Grubbs 1st generation ruthenium catalyst dissolved in dichloroethane was added to the resin-bound peptides. To ensure maximal conversion, three to five rounds of stapling were performed. The peptides were then cleaved off of the resin using trifluoroacetic acid, precipitated using a hexane:ether (1:1) mixture, air dried, and purified by LC-MS. All peptides were quantified by amino acid analysis. RBC hemolysis assay: Human blood samples were centrifuged to isolate red blood cells (RBCs), which were then washed and suspended in phosphate-buffered saline to yield a 1% (v/v) suspension. The suspension was added to serial dilutions of peptide stocks in water in clear round-bottom polypropylene 96-well plates and the plates incubated for 1 hour at 37° C. The plates were then centrifuged and the supernatant isolated to determine the amount of hemoglobin released using a spectrophotometer (570 nm). Percent hemolysis was calculated as: ([Treated Absorbance−Untreated Control Absorbance]×100)/(1% Triton X-100 Treated Absorbance−Untreated Control Absorbance).

Compound | cancer cell lysis by LDH release, compared with parent Mag(i+4)15 (OCI-AML3 cells) | cancer cell lysis by LDH release, compared with parent Mag(i+4)15 (U937 cells) | RBC lysis (red blood cells (RBCs)) | further results
KIGKFLHSAKKFGKAX1VGEX2BNS [Mag(i+4)15 (G1K)] | retain substantial, if not all, oncolytic activity | retain substantial, if not all, oncolytic activity | – | killing of S. aureus compared to the parent compound (S. aureus): substantially impaired; killing of B. cereus compared to the parent compound (B. cereus): substantially impaired
CC(C)[C@@H]1NC(=O)[C@@](C)(NC(=O)[C@H](C)NC(=O)[C@H](CCCCN)NC(=O)CNC(=O)[C@H](Cc2ccccc2)NC(=O)[C@H](CCCCN)NC(=O)[C@H](CCCCN)NC(=O)[C@H](CCCCN)NC(=O)[C@H](CO)NC(=O)[C@H](Cc2c[nH]cn2)NC(=O)[C@]2(C)CCCC=CCCC[C@](C)(NC(=O)CN)C(=O)NCC(=O)N[C@@H](CCCCN)C(=O)N[C@@H](Cc3ccccc3)C(=O)N2)CCCC=CCCC[C@@](C)(C(=O)N[C@@H](C)C(=O)N[C@@H](CCCCN)C(=O)N[C@@H](CCCCN)C(N)=O)NC(=O)[C@H](CCC(=O)O)NC(=O)CNC1=O [Mag(i+4)1,15 (A9K, B21A, N22K, S23K), GX1GKFX2HSKKKFGKAX3VGEX4AKK] (H-G[S5]GKF[S5]HSKKKFGKA[S5]VGE[S5]AKK-NH2; staple 2-6, 16-20) | – | – | – | toxicity (gross toxicity, red cell hemolysis, kidney epithelium) [1]: without gross toxicity, red cell hemolysis or damage to kidney epithelium; EC50 of leukemia cell lysis (LDH release) [2]: 11.5 to 28.2 µg/mL
CCCC[C@H](NC(=O)[C@@H](NC(=O)[C@H](CCC(=O)O)NC(=O)CNC(=O)[C@@H](NC(=O)[C@H](Cc1ccccc1)NC(=O)[C@H](C)NC(=O)[C@H](CCCCN)NC(=O)CNC(=O)[C@H](Cc1ccccc1)NC(=O)[C@]1(C)CCCC=CCCC[C@](C)(NC(=O)[C@H](CC(C)C)NC(=O)[C@H](Cc2ccccc2)NC(=O)[C@H](CCCCN)NC(=O)CNC(=O)[C@@H](NC(=O)CN)[C@@H](C)CC)C(=O)N[C@@H](CO)C(=O)N[C@@H](C)C(=O)N[C@@H](CCCCN)C(=O)N1)C(C)C)[C@@H](C)CC)C(=O)N[C@@H](CC(N)=O)C(=O)N[C@@H](CO)C(N)=O [Mag(i+4)6, GIGKFLX1SAKX2FGKAFVGEIBNS] (H-GIGKFL[S5]SAK[S5]FGKAFVGEI[Nle]NS-NH2; staple 7-11) | – | – | no effect on any cell type | –
CCCC[C@H](NC(=O)[C@@H](NC(=O)[C@H](CCC(=O)O)NC(=O)CNC(=O)[C@@H](NC(=O)[C@H](Cc1ccccc1)NC(=O)[C@H](C)NC(=O)[C@H](CCCCN)NC(=O)CNC(=O)[C@H](Cc1ccccc1)NC(=O)[C@H](CCCCN)NC(=O)[C@H](CCCCN)NC(=O)[C@H](C)NC(=O)[C@H](CO)NC(=O)[C@]1(C)CCCC=CCCC[C@](C)(NC(=O)[C@@H](NC(=O)CN)[C@@H](C)CC)C(=O)N[C@@H](CCCCN)C(=O)N[C@@H](Cc2ccccc2)C(=O)N[C@@H](CC(C)C)C(=O)N1)C(C)C)[C@@H](C)CC)C(=O)N[C@@H](CC(N)=O)C(=O)N[C@@H](CO)C(N)=O [Mag(i+4)2, GIX1KFLX2SAKKFGKAFVGEIBNS] (H-GI[S5]KFL[S5]SAKKFGKAFVGEI[Nle]NS-NH2; staple 3-7) | – | – | little to no effect on RBCs | –
CCCC[C@@H]1NC(=O)[C@H]([C@@H](C)CC)NC(=O)[C@@](C)(NC(=O)CNC(=O)[C@@H](NC(=O)[C@H](Cc2ccccc2)NC(=O)[C@H](C)NC(=O)[C@H](CCCCN)NC(=O)CNC(=O)[C@H](Cc2ccccc2)NC(=O)[C@H](CCCCN)NC(=O)[C@H](CCCCN)NC(=O)[C@H](C)NC(=O)[C@H](CO)NC(=O)[C@H](Cc2c[nH]cn2)NC(=O)[C@H](CC(C)C)NC(=O)[C@H](Cc2ccccc2)NC(=O)[C@H](CCCCN)NC(=O)CNC(=O)[C@@H](NC(=O)CN)[C@@H](C)CC)C(C)C)CCCC=CCCC[C@@](C)(C(N)=O)NC(=O)[C@H](CC(N)=O)NC1=O [Mag(i+4)18, GIGKFLHSAKKFGKAFVGX1IBNX2] (H-GIGKFLHSAKKFGKAFVG[S5]I[Nle]N[S5]-NH2; staple 19-23) | – | – | lytic to all three cell types | –
GIGKFLHSAKKFGKKX1VGEX2BNS (GIGKFLHSAKKFGKK[S5]VGE[S5][Nle]NS; staple 16-20) [Mag(i+4)15 (A15K)] | retain substantial, if not all, oncolytic activity | retain substantial, if not all, oncolytic activity | – | –
GKGKFLHSAKKFGKAX1VGEX2BNS [Mag(i+4)15 (I2K)] | retain substantial, if not all, oncolytic activity | retain substantial, if not all, oncolytic activity | – | killing of S. aureus compared to the parent compound (S. aureus): substantially impaired; killing of B. cereus compared to the parent compound (B. cereus): substantially impaired
GIGKFLESAKKFGKAX1VGEX2BNS (GIGKFLESAKKFGKA[S5]VGE[S5][Nle]NS; staple 16-20) [Mag(i+4)15 (H7E)] | retained potent membrane lysis | retained potent membrane lysis | – | susceptibility of OCI-AML3 cells to iStOPs (LDH release) (OCI-AML3 cells): especially potent and selective activity
GIGKFLKSAKKFGKAX1VGEX2BNS (GIGKFLKSAKKFGKA[S5]VGE[S5][Nle]NS; staple 16-20) [Mag(i+4)15 (H7K)] | retain substantial, if not all, oncolytic activity | retain substantial, if not all, oncolytic activity | – | –
CCCC[C@H](NC(=O)[C@@H](NC(=O)[C@H](CCC(=O)O)NC(=O)CNC(=O)[C@@H](NC(=O)[C@H](Cc1ccccc1)NC(=O)[C@H](C)NC(=O)[C@H](CCCCN)NC(=O)CNC(=O)[C@H](Cc1ccccc1)NC(=O)[C@H](CCCCN)NC(=O)[C@H](CCCCN)NC(=O)[C@H](C)NC(=O)[C@H](CO)NC(=O)[C@H](Cc1c[nH]cn1)NC(=O)[C@H](CC(C)C)NC(=O)[C@]1(C)CCCC=CCCC[C@](C)(N)C(=O)N[C@@H]([C@@H](C)CC)C(=O)NCC(=O)N[C@@H](CCCCN)C(=O)N1)C(C)C)[C@@H](C)CC)C(=O)N[C@@H](CC(N)=O)C(=O)N[C@@H](CO)C(N)=O [Mag(i+4)0, X1IGKX2LHSAKKFGKAFVGEIBNS] (H-[S5]IGK[S5]LHSAKKFGKAFVGEI[Nle]NS-NH2; staple 1-5) | – | – | little to no effect on RBCs | –
GIGKFLHSAKKFGKEX1VGEX2BNS (GIGKFLHSAKKFGKE[S5]VGE[S5][Nle]NS; staple 16-20) [Mag(i+4)15 (A15E)] | retained substantial or all cancer cell killing activity | retained substantial or all cancer cell killing activity | – | susceptibility of OCI-AML3 cells to iStOPs (LDH release) (OCI-AML3 cells): especially potent and selective activity
